From patent publication US20220046923A1, “HERBICIDAL CINNOLINIUM COMPOUNDS” (SYNGENTA CROP PROTECTION AG, priority 2018, published 2022)

Legend:
Assay in all cases: Post-emergence efficacy, glasshouse spray test
Format in all cases: in vivo
[1] = test system: Digitaria sanguinalis (DIGSA); settings: application rate 1000 g/Ha, evaluated after 13 days; for pest or weed control at 1000 g/ha: Digitaria sanguinalis, post-emergence, 312 h, read-out: Control of weed species DIGSA after post-emergence application (100=total damage to plant; 0=no damage to plant)
Method in brief: (§1)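 Seeds were sown in pots of standard soil and grown for 14 days under controlled glasshouse conditions. Seedlings were sprayed with the compound emulsified via acetone and IF50 and diluted in sodium lauryl ether sulphate (0.25% or 1%) with 1% ammonium sulphate. They were kept at 24/16 °C with 14 h light and 65% humidity and rated for damage on a 0–100 scale after 13 days.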

[2] = test system: Euphorbia heterophylla (EPHHL); settings: application rate 1000 g/Ha, evaluated after 13 days; for pest or weed control at 1000 g/ha: Euphorbia heterophylla, post-emergence, 312 h, read-out: Control of weed species EPHHL after post-emergence application (100=total damage to plant; 0=no damage to plant)
Method in brief: as §1

[3] = test system: Chenopodium album (CHEAL); settings: application rate 1000 g/Ha, evaluated after 13 days; for pest or weed control at 1000 g/ha: Chenopodium album, post-emergence, 312 h, read-out: Control of weed species CHEAL after post-emergence application (100=total damage to plant; 0=no damage to plant)
Method in brief: as §1

[4] = test system: Echinochloa crus-galli (ECHCG); settings: application rate 1000 g/Ha, evaluated after 13 days; for pest or weed control at 1000 g/ha: Echinochloa crus-galli, post-emergence, 312 h, read-out: Control of weed species ECHCG after post-emergence application (100=total damage to plant; 0=no damage to plant)
Method in brief: as §1

[5] = test system: Ipomoea hederacea (IPOHE); settings: application rate 1000 g/Ha, evaluated after 13 days; for pest or weed control at 1000 g/ha: Ipomoea hederacea, post-emergence, 312 h, read-out: Control of weed species IPOHE after post-emergence application (100=total damage to plant; 0=no damage to plant)
Method in brief: as §1

[6] = test system: Eleusine indica (ELEIN); settings: application rate 1000 g/Ha, evaluated after 13 days; for pest or weed control at 1000 g/ha: Eleusine indica, post-emergence, 312 h, read-out: Control of weed species ELEIN after post-emergence application (100=total damage to plant; 0=no damage to plant)
Method in brief: as §1

[7] = test system: Lolium perenne (LOLPE); settings: application rate 1000 g/Ha, evaluated after 13 days; for pest or weed control at 1000 g/ha: Lolium perenne, post-emergence, 312 h, read-out: Control of weed species LOLPE after post-emergence application (100=total damage to plant; 0=no damage to plant)
Method in brief: as §1

[8] = test system: Setaria faberi (SETFA); settings: application rate 1000 g/Ha, evaluated after 13 days; for pest or weed control at 1000 g/ha: Setaria faberi, post-emergence, 312 h, read-out: Control of weed species SETFA after post-emergence application (100=total damage to plant; 0=no damage to plant)
Method in brief: as §1

[9] = test system: Amaranthus palmeri (AMAPA); settings: application rate 1000 g/Ha, evaluated after 13 days; for pest or weed control at 1000 g/ha: Amaranthus palmeri, post-emergence, 312 h, read-out: Control of weed species AMAPA after post-emergence application (100=total damage to plant; 0=no damage to plant)
Method in brief: as §1

Structure (SMILES) | pest or weed control at 1000 g/ha [1] [%] | pest or weed control at 1000 g/ha [2] [%] | pest or weed control at 1000 g/ha [3] [%] | pest or weed control at 1000 g/ha [4] [%] | pest or weed control at 1000 g/ha [5] [%] | pest or weed control at 1000 g/ha [6] [%] | pest or weed control at 1000 g/ha [7] [%] | pest or weed control at 1000 g/ha [8] [%] | pest or weed control at 1000 g/ha [9] [%] | Control of weed species DIGSA after post-emergence application (100=total damage to plant; 0=no damage to plant) [1] | Control of weed species EPHHL after post-emergence application (100=total damage to plant; 0=no damage to plant) [2] | Control of weed species CHEAL after post-emergence application (100=total damage to plant; 0=no damage to plant) [3] | Control of weed species ECHCG after post-emergence application (100=total damage to plant; 0=no damage to plant) [4] | Control of weed species IPOHE after post-emergence application (100=total damage to plant; 0=no damage to plant) [5] | Control of weed species ELEIN after post-emergence application (100=total damage to plant; 0=no damage to plant) [6] | Control of weed species LOLPE after post-emergence application (100=total damage to plant; 0=no damage to plant) [7] | Control of weed species SETFA after post-emergence application (100=total damage to plant; 0=no damage to plant) [8] | Control of weed species AMAPA after post-emergence application (100=total damage to plant; 0=no damage to plant) [9]
COc1ccc2cc[n+](CCS(=O)(=O)[O-])nc2c1 [Compound A85] | 20 | 80 | 100 | 20 | 70 | 40 | 20 | 30 | 100 |  |  |  |  |  |  |  |  | 
COc1cccc2cc[n+](CCS(=O)(=O)[O-])nc12 [Compound A86] | 40 | 90 | 100 | 50 | 90 | 80 | 60 | 50 | 100 |  |  |  |  |  |  |  |  | 
Cc1ccc2cc[n+](CCS(=O)(=O)[O-])nc2c1 [Compound A87] | 40 | 100 | 100 | 40 | 70 | 80 | 40 | 50 | 100 |  |  |  |  |  |  |  |  | 
O=S(=O)([O-])CC[n+]1ccc2cc(Cl)ccc2n1 [Compound A88] | 50 | 60 | 40 | 20 | 20 | 50 | 30 | 40 | 70 |  |  |  |  |  |  |  |  | 
O=C(O)c1ccc(C[n+]2ccc3ccccc3n2)cc1 [Compound A89] | 0 | 40 | 0 | 0 | 20 | 0 | 0 | 0 | 20 |  |  |  |  |  |  |  |  | 
O=S(=O)(O)c1cccc(C[n+]2ccc3ccccc3n2)c1 [Compound A93, 3-(cinnolin-2-ium-2-ylmethyl)benzenesulfonic Acid] |  |  |  |  |  |  |  |  |  | 20 | 50 | 10 | 20 | 40 | 10 | 10 | 20 | 10
O=S(=O)([O-])CC[n+]1ccc2ccc(Cl)cc2n1 [Compound A94] | 50 | 100 | 90 | 40 | 40 | 90 | 40 | 50 | 100 |  |  |  |  |  |  |  |  | 
O=S(=O)([O-])CC[n+]1ccc2cccc(C(F)(F)F)c2n1 [Compound A95] | 10 | 50 | 50 | 10 | 10 | 10 | 0 | 10 | 40 |  |  |  |  |  |  |  |  | 
O=S(=O)([O-])CC[n+]1ccc2c(Cl)cccc2n1 [Compound A96] | 60 | 100 | 100 | 40 | 20 | 60 | 40 | 30 | 70 |  |  |  |  |  |  |  |  | 
